Source: patent publication US4794104A, “Pharmaceutical compositions containing ACTH fragments for the therapy of shock conditions and of respiratory and cardiocirculatory insufficiencies” (priority 1986, dated 1988)

Key:
shock = conditions: in vivo; cited from earlier work
[1] = system: hypovolemic shock (severe hypotension induced by bleeding) in rats; assay: Hypovolemic shock by bleeding in anesthetized rats: mean arterial pressure and survival after i.v. bolus; format: in vivo, female Wistar rats; conditions: for Mean arterial pressure, 15-30 min. after treatment / Mean arterial pressure, after bleeding / Mean arterial pressure, before bleeding: mean ± S.E.; for Mean arterial pressure, after bleeding: before treatment; for Mean arterial pressure, before bleeding: baseline before bleeding
Experimental: Intact and adrenalectomized female Wistar rats (Nossan, Correzzano, Milano, Italy) weighing 250 to 300 g, were used. Following anesthetization and heparinization a common carotid artery and an iliac vein were cannulated in rats. Arterial blood pressure was recorded by means of a pressure transducer (Statham P23 Db) connected to a polygraph (Battaglia-Rangoni, Bologna, Italy). […] Hypovolemic shock was produced by intermittently withdrawing blood from the venous catheter until mean arterial pressure fell to 16-30 mm Hg. […] Following bleeding and mean blood pressure stabilization in the range of 16-30 mm Hg, animals were given intravenous bolus of either ACTH fragments. Control animals were intravenously injected with the same volume of saline (0.1 ml/100 g of body weight).

[2] = Toxicity and side-effects of ACTH fragments (general statement)
[3] = group later given 160 μg/kg i.v.
[4] = group later given 40 μg/kg i.v.
[5] = group later given 80 μg/kg i.v.

Compound: C=CCN1CC[C@]23c4c5ccc(O)c4O[C@H]2C(=O)CC[C@@]3(O)[C@H]1C5 [naloxone]
- Dosage therapeutically active in shock (shock): about 1 mg/kg

Compound: ACTH (1-13) (SYSMEHFRWGKPV; Corticotropin; UniProt P01189 138-150, looked up, fragment) [ACTH-(1-13)]
- No. of deaths 120 min. after treatment ([1]; 160 μg/kg i.v. after bleeding): 0
- Mean arterial pressure, 15-30 min. after treatment ([1]; 160 μg/kg i.v. after bleeding): 34.50 ± 1.32 mm Hg
- Mean arterial pressure, after bleeding [1, 3]: 15.75 ± 1.31 mm Hg
- Mean arterial pressure, before bleeding [1, 3]: 66.25 ± 9.14 mm Hg

Compound: ACTH (1-16) (SYSMEHFRWGKPVGKK; Corticotropin; UniProt P01189 138-153, looked up, fragment) [ACTH-(1-16)]
- No. of deaths 120 min. after treatment ([1]; 160 μg/kg i.v. after bleeding): 0
- Mean arterial pressure, 15-30 min. after treatment ([1]; 160 μg/kg i.v. after bleeding): 54.50 ± 2.02 mm Hg
- Mean arterial pressure, after bleeding [1, 3]: 15.50 ± 2.53 mm Hg
- Mean arterial pressure, before bleeding [1, 3]: 78.25 ± 12.46 mm Hg

Compound: ACTH (1-17) [ACTH-(1-17)]
- No. of deaths 120 min. after treatment ([1]; 160 μg/kg i.v. after bleeding): 0
- Mean arterial pressure, 15-30 min. after treatment ([1]; 160 μg/kg i.v. after bleeding): 41.50 ± 3.75 mm Hg
- Mean arterial pressure, after bleeding [1, 3]: 15.75 ± 2.29 mm Hg
- Mean arterial pressure, before bleeding [1, 3]: 57.50 ± 7.17 mm Hg

Compound: ACTH (1-18) (SYSMEHFRWGKPVGKKRR; Corticotropin; UniProt P01189 138-155, looked up, fragment) [ACTH-(1-18)]
- No. of deaths 120 min. after treatment ([1]; 160 μg/kg i.v. after bleeding): 0
- Mean arterial pressure, 15-30 min. after treatment ([1]; 160 μg/kg i.v. after bleeding): 38.50 ± 1.85 mm Hg
- Mean arterial pressure, after bleeding [1, 3]: 15.00 ± 2.12 mm Hg
- Mean arterial pressure, before bleeding [1, 3]: 53.00 ± 4.88 mm Hg

Compound: ACTH (1-24) [ACTH-(1-24)]
- No. of deaths 120 min. after treatment ([1]; 40 μg/kg i.v. after bleeding): 0
- Mean arterial pressure, 15-30 min. after treatment ([1]; 40 μg/kg i.v. after bleeding): 39.40 ± 6.32 mm Hg
- No. of deaths 120 min. after treatment ([1]; 80 μg/kg i.v. after bleeding): 0
- Mean arterial pressure, 15-30 min. after treatment ([1]; 80 μg/kg i.v. after bleeding): 59.48 ± 8.10 mm Hg
- No. of deaths 120 min. after treatment ([1]; 160 μg/kg i.v. after bleeding): 0
- Mean arterial pressure, 15-30 min. after treatment ([1]; 160 μg/kg i.v. after bleeding): 75.80 ± 8.45 mm Hg
- Mean arterial pressure, after bleeding [1, 4]: 17.40 ± 2.68 mm Hg
- Mean arterial pressure, before bleeding [1, 4]: 82.33 ± 11.73 mm Hg
- Mean arterial pressure, after bleeding [1, 5]: 19.23 ± 3.65 mm Hg
- Mean arterial pressure, before bleeding [1, 5]: 80.15 ± 9.43 mm Hg
- Mean arterial pressure, after bleeding [1, 3]: 23.15 ± 2.90 mm Hg
- Mean arterial pressure, before bleeding [1, 3]: 82.40 ± 10.75 mm Hg
- Toxicity / side-effects [2]: substantially non-toxic

Compound: ACTH (1-39) (SYSMEHFRWGKPVGKKRRPVKVYPNGAEDESAEAFPLEF; Corticotropin; UniProt P01189 138-176, looked up) [ACTH-(1-39), full-length ACTH (1-39)]
- No. of deaths 120 min. after treatment ([1]; 160 μg/kg i.v. after bleeding): 0
- Mean arterial pressure, 15-30 min. after treatment ([1]; 160 μg/kg i.v. after bleeding): 35.75 ± 5.65 mm Hg
- Mean arterial pressure, after bleeding [1, 3]: 14.75 ± 2.32 mm Hg
- Mean arterial pressure, before bleeding [1, 3]: 88.25 ± 2.17 mm Hg

Compound: ACTH (4-10) (MEHFRWG; Corticotropin; UniProt P01189 141-147, looked up, fragment) [ACTH-(4-10)]
- No. of deaths 120 min. after treatment ([1]; 160 μg/kg i.v. after bleeding): 0
- Mean arterial pressure, 15-30 min. after treatment ([1]; 160 μg/kg i.v. after bleeding): 47.25 ± 6.18 mm Hg
- Mean arterial pressure, after bleeding [1, 3]: 13.75 ± 2.53 mm Hg
- Mean arterial pressure, before bleeding [1, 3]: 63.25 ±6.76 mm Hg

Compound: ACTH(25-39) (NGAEDESAEAFPLEF; Corticotropin; UniProt P01189 162-176, looked up, fragment)
- No. of deaths 120 min. after treatment ([1]; 160 μg/kg i.v. after bleeding): 1
- Mean arterial pressure, 15-30 min. after treatment ([1]; 160 μg/kg i.v. after bleeding): 25.50 ± 4.40 mm Hg
- Mean arterial pressure, after bleeding [1, 3]: 11.50 ± 1.34 mm Hg
- Mean arterial pressure, before bleeding [1, 3]: 78.17 ± 7.25 mm Hg
